Results as given in PMC2996881 (Biochemistry, 2010).

Legend:
CgTHI6 [1] = biological target: T1, CgTHI6 (Nakaseomyces glabratus, UniProt Q6FV03); assay: X-ray crystal structure; assay type: binding; settings: ThiM (C-terminal) domain ATP site; Mg2+
T1 sequence (Q6FV03 1-540): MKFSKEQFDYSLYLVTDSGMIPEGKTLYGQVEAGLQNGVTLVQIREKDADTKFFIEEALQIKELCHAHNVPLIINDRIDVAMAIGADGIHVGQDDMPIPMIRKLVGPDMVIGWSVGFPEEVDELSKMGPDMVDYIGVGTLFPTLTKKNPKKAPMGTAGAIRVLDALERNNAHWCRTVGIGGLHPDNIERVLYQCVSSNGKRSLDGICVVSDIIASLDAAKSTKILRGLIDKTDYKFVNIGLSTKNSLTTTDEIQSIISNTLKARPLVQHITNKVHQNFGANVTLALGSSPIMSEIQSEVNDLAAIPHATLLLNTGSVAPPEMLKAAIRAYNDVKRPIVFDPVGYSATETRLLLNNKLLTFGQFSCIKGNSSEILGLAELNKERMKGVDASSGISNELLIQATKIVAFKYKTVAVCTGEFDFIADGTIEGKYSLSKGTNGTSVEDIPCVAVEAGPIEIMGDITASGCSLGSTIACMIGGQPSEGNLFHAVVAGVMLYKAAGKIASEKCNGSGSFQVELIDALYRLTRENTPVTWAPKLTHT

CgTHI6 [2] = biological target: T1, CgTHI6; assay: HPLC of Thz-P formation at […] nm; assay type: biochemical; settings: ThiM activity; 2 mM ATP, 1.2 mM Thz, 2 mM MgSO4, room temperature, 2 h
CgTHI6 [3] = biological target: T1, CgTHI6; assay: HPLC of ThMP formation at […] nm; assay type: biochemical; settings: TPS activity; 1 mM HMP-PP, 1.2 mM Thz, 2 mM ATP, 2 mM MgSO4, room temperature, 2 h

Nc1ncnc2c1ncn2[C@@H]1O[C@H](COP(=O)(O)OP(=O)(O)CP(=O)(O)O)[C@@H](O)[C@H]1O [AMP-PCP]
X-ray crystal structure (soaked, 3.3 A with Thz; 2.6 A with ThMP) (CgTHI6 [1]): The ATP binding site is inferred from the complex containing the non-hydrolizable ATP analogue, AMP-PCP

Nc1ncnc2c1ncn2[C@@H]1O[C@H](COP(=O)(O)OP(=O)(O)OP(=O)(O)O)[C@@H](O)[C@H]1O [ATP]
HPLC of Thz-P formation at 261 nm (CgTHI6 [2]): the purified protein was incubated with Thz and ATP, formation of Thz-P was noted

Cc1ncc(COP(=O)(O)OP(=O)(O)O)c(N)n1 [HMP-PP, 4-amino-5-hydroxymethyl-2-methylpyrimidine pyrophosphate]
HPLC of ThMP formation at 261 nm (CgTHI6 [3]): Incorporation of HMP-PP in the same reaction resulted in the production of ThMP
